ChEMBL document CHEMBL1125940 (Bioorg Med Chem Lett, 1991)
Positions of bridges follow the written chain, without caps; N, C: chain ends. Residues, ends and D or L forms follow the SMILES beside them.

species on record: Oryctolagus cuniculus; experiment: Percent of endothelin-1 induced contraction of carotid arteries isolated from New Zealand white rabbits, tested at 1 uM concentration of compound; format: functional

Row | Compound | Contraction
1 | CC[C@H](C)[C@H](NC(=O)[C@H](CC(=O)O)NC(=O)[C@H](CC(C)C)NC(=O)[C@H](Cc1c[nH]cn1)NC(=O)[C@@H]1CSSC[C@H](N)C(=O)N[C@@H](CO)C(=O)N[C@H]2CSSC[C@H](NC(=O)[C@H](CCC(=O)O)NC(=O)[C@H](CCCCN)NC(=O)[C@H](C)NC(=O)[C@H](CCSC)NC(=O)[C@H](CC(C)C)NC(=O)[C@H](CO)NC(=O)[C@H](CO)NC2=O)C(=O)N[C@@H](C(C)C)C(=O)N[C@@H](Cc2ccc(O)cc2)C(=O)N[C@@H](Cc2ccccc2)C(=O)N1)C(=O)N[C@H](C(=O)N[C@@H](Cc1c[nH]c2ccccc12)C(=O)O)[C@@H](C)CC (H-CSCSSLMAKECVYFCHLDIIW-OH; disulfide 1-15, 3-11) | 60%
2 | CC[C@H](C)[C@H](NC(=O)[C@H](CC(=O)O)NC(=O)[C@H](CC(C)C)NC(=O)[C@H](Cc1c[nH]cn1)NC(=O)[C@@H]1CSSC[C@H](N)C(=O)N[C@@H](CO)C(=O)N[C@H]2CSSC[C@H](NC(=O)[C@H](CCC(=O)O)NC(=O)[C@H](CCCCN)NC(=O)[C@H](CC(=O)O)NC(=O)[C@H](CCSC)NC(=O)[C@H](CC(C)C)NC(=O)[C@H](CO)NC(=O)[C@H](CO)NC2=O)C(=O)N[C@@H](C(C)C)C(=O)N[C@@H](Cc2ccc(O)cc2)C(=O)N[C@@H](Cc2ccccc2)C(=O)N1)C(=O)N[C@@H](C)C(=O)N[C@@H](Cc1c[nH]c2ccccc12)C(=O)O (H-CSCSSLMDKECVYFCHLDIAW-OH; disulfide 1-15, 3-11) | 37%
3 | CC[C@H](C)[C@H](NC(=O)[C@H](CC(=O)O)NC(=O)[C@H](CC(C)C)NC(=O)[C@H](Cc1c[nH]cn1)NC(=O)[C@@H]1CSSC[C@H](N)C(=O)N[C@@H](CO)C(=O)N[C@H]2CSSC[C@H](NC(=O)[C@H](C)NC(=O)[C@H](CCCCN)NC(=O)[C@H](CC(=O)O)NC(=O)[C@H](CCSC)NC(=O)[C@H](CC(C)C)NC(=O)[C@H](CO)NC(=O)[C@H](CO)NC2=O)C(=O)N[C@@H](C(C)C)C(=O)N[C@@H](Cc2ccc(O)cc2)C(=O)N[C@@H](Cc2ccccc2)C(=O)N1)C(=O)N[C@H](C(=O)N[C@@H](Cc1c[nH]c2ccccc12)C(=O)O)[C@@H](C)CC (H-CSCSSLMDKACVYFCHLDIIW-OH; disulfide 1-15, 3-11) | 7%
4 | CC[C@H](C)[C@H](NC(=O)[C@H](CC(=O)O)NC(=O)[C@H](CC(C)C)NC(=O)[C@H](Cc1c[nH]cn1)NC(=O)[C@@H]1CSSC[C@H](N)C(=O)N[C@@H](CO)C(=O)N[C@H]2CSSC[C@H](NC(=O)[C@H](CCC(=O)O)NC(=O)[C@H](CCCCN)NC(=O)[C@H](CC(=O)O)NC(=O)[C@H](CCSC)NC(=O)[C@H](CC(C)C)NC(=O)[C@H](CO)NC(=O)[C@H](CO)NC2=O)C(=O)N[C@@H](C(C)C)C(=O)N[C@@H](Cc2ccc(O)cc2)C(=O)N[C@@H](C)C(=O)N1)C(=O)N[C@H](C(=O)N[C@@H](Cc1c[nH]c2ccccc12)C(=O)O)[C@@H](C)CC (H-CSCSSLMDKECVYACHLDIIW-OH; disulfide 1-15, 3-11) | 6%
